# Results: patent EP0532512B1, “USE OF PLATELET ACTIVATING FACTOR ANTAGONISTS AS ANTI-PRURITIC AGENTS” (ALLERGAN, INC., priority 1990, dated 1991)
# Where a SMILES comes first, the peptide text is derived from it.
# Assays:
# PAF induced pruritus = assay: Attenuation of PAF induced pruritus by 30 minute topical pretreatment (conjunctival itch-scratch model); type: in vivo, guinea-pig; conditions: for scratch episodes, TREATED GROUP (mean ± SEM): 30 minute topical pretreatment, n=12
# Text: (§1) A more complete appreciation of the invention may be obtained from the following Examples. As a means of providing an atraumatic experimental model of itching, the conjunctiva was used as a convenient tissue site. Pruritogenic agents may be administered to the conjunctiva without the need to traumatize the tissue by injection or scarification. The itch sensation is elicited peripherically by local, atraumatic application of the pruritogen. Of equal importance is the ability of this model to identify locally acting anti-pruritic agents without concerns regarding local tissue trauma or, in the case of systemically administered agents, sedation.
# (§2) The pruritogenic activity of numerous and structurally diverse autocoids was examined as follows. A 20 µl drop of a solution of the particular autocoid under evaluation was topically administered to one albino guinea-pig eye, the contralateral eye received 20 µl of vehicle as a control. For PAF studies, the R=15 version of formula I was used and was taken up in 0.5% ultrapure bovine serum albumin. The guinea pig was then replaced in its cage and the number of scratching episodes was recorded over the 15 subsequent minute period. The retention of the experimental animal in familiar surroundings is an important factor in experimental design. Scratching, which is the typical mammalian behavioral response to the itch sensation, provides an indication of the intensity of the perceived itch sensation and can be quantified by recording the frequency at which itch-scratch episodes occur per unit time: 15 minutes in the case of these examples.
# The ability of a 30 minute topical pretreatment with selected PAF antagonists to attenuate PAF induced pruritus is shown in Table 2.
# albino guinea-pig eye = assay: Pruritogenic activity of autocoids: topical drop to the eye (conjunctiva), scratching episodes counted over 15 minutes; type: in vivo; conditions: for NO OF SCRATCH EPISODES (X̄ ± SEM): 15 minutes, n=12; for pruritogenic activity (in words): summary of Table 1
# Text: as §1, §2
# [1] = system: experimental allergic itching; assay: Experimental allergic itching: conjunctival antigen (chicken ovalbumin) challenge in presensitized animals after pretreatment; type: in vivo; conditions: n=8-10
# Text: as §1
# In addition to pharmacological studies on pruritogenic autocoids, the conjunctiva may be used as a convenient site for modelling diseases where itching is a major symptom. In animals presensitized to a particular antigen, subsequent topical challenge with that antigen results in conjunctival itching. This may be regarded as an experimental model of itching which has general relevance to clinically encountered pruritus. In the studies described herein, chicken ovalbumin was used as an antigenic substance and the ability of PAF antagonist pretreatment to block the itching response was examined (Table 3).
# [2] = dose 10 μg, 20 µl drop topically to one eye
# [3] = dose 100 μg, 20 µl drop topically to one eye
molecule,measurement,setting,value
COc1ccc(CN(CCN(C)C)c2ccccn2)cc1 [Pyrilamine],"scratch episodes, TREATED GROUP (mean ± SEM)","PAF induced pruritus; 0.1 mg/ml, vs 1 µg PAF",4.17 ± 0.91
same,"scratch episodes, TREATED GROUP (mean ± SEM)","PAF induced pruritus; 0.1 mg/ml, vs 10 µg PAF",14.25 ± 1.75
same,block of PAF induced pruritus (in words),PAF induced pruritus; summary of Table 2,not
CCCCCCCCCCCCCCCCOC[C@@H](O)COP(=O)([O-])OCC[N+](C)(C)C [LYSO-PAF],NO OF SCRATCH EPISODES (X̄ ± SEM),"albino guinea-pig eye; dose 1 μg, 20 µl drop topically to one eye",0.92 ± 0.26
same,NO OF SCRATCH EPISODES (X̄ ± SEM),albino guinea-pig eye; [2],2.67 ± 0.73
same,NO OF SCRATCH EPISODES (X̄ ± SEM),albino guinea-pig eye; [3],13.0 ± 1.58
same,pruritogenic activity (in words),albino guinea-pig eye,relatively weak activity
CCCCC/C=C\C/C=C\C/C=C\C=C\C(O)CCCC(=O)O (stereo not shown) [5-Hydroxytetraemoic Acid],NO OF SCRATCH EPISODES (X̄ ± SEM),albino guinea-pig eye; [2],0.33 ± 0.22
CCCCC/C=C\C\C=C/C=C/C=C/[C@@H](SC[C@H](NC(=O)CC[C@H](N)C(=O)O)C(=O)NCC(=O)O)[C@@H](O)CCCC(=O)O [LEUKOTRIENE C4],NO OF SCRATCH EPISODES (X̄ ± SEM),albino guinea-pig eye; [2],0.58 ± 0.36
"CCCCCCCCCCCCCCCCOCC(COP(=O)([O-])OCC[N+](C)(C)C)OC(C)=O (stereo not shown) [PAF, 1-O-alkyl-2-acetyl-sn-glycero-3-phosphocholine]",pruritogenic activity (in words),albino guinea-pig eye,most potent pruritogenic agent
Cc1nnc2n1-c1sc(CCC(=O)N3CCOCC3)cc1C(c1ccccc1Cl)=NC2 [Compound of formula (IV)],"scratch episodes, TREATED GROUP",[1]; 10 mg/ml pretreatment vs 10 µG antigen,5.00 ± 1.10
same,"scratch episodes, TREATED GROUP (mean ± SEM)","PAF induced pruritus; 5 mg/ml, vs 1 µg PAF",0.33 ± 0.19
same,"scratch episodes, TREATED GROUP (mean ± SEM)","PAF induced pruritus; 5 mg/ml, vs 10 µg PAF",5.25 ± 0.98
"CC1C(=O)OC2C(O)C34C5CC(C(C)(C)C)C36C(OC(=O)C6O)OC4(C(=O)O5)C12O (stereo not shown) [Compound of formula (III), Ginkgolide B]","scratch episodes, TREATED GROUP",[1]; 10 mg/ml pretreatment vs 100 µG antigen,6.87 ± 1.61
same,"scratch episodes, TREATED GROUP (mean ± SEM)","PAF induced pruritus; 10 mg/ml, vs 10 µg PAF",8.42 ± 1.37
CCCCC/C=C\C[C@@H](O)/C=C/C=C/C=C\[C@@H](O)CCCC(=O)O [LEUKOTRIENE B4],NO OF SCRATCH EPISODES (X̄ ± SEM),albino guinea-pig eye; [2],0.42 ± 0.23
CC(C)[C@H](N)C(=O)NCC(=O)N[C@@H](CC(=O)O)C(=O)N[C@@H](CCC(=O)O)C(=O)O [L-valylglycyl-L-aspartyl-L-glutamic acid] (H-VGDE-OH),NO OF SCRATCH EPISODES (X̄ ± SEM),albino guinea-pig eye; [3],0.92 ± 0.26
"Bradykinin (RPPGFSPFR; Bradykinin; UniProt P01042 381-389, looked up)",NO OF SCRATCH EPISODES (X̄ ± SEM),albino guinea-pig eye; [2],0.50 ± 0.23
same,NO OF SCRATCH EPISODES (X̄ ± SEM),albino guinea-pig eye; [3],4.00 ± 0.90
C[C@H](N)C(=O)NCC(=O)N[C@@H](CO)C(=O)N[C@@H](CCC(=O)O)C(=O)O [L-alanylglycyl-L-seryl-L-glutamic acid] (H-AGSE-OH),NO OF SCRATCH EPISODES (X̄ ± SEM),"albino guinea-pig eye; dose 1000 μg, 20 µl drop topically to one eye",1.42 ± 0.47
CCCCC[C@H](O)/C=C/[C@@H]1[C@@H](C/C=C\CCCC(=O)O)[C@@H](O)C[C@H]1O [PROSTAGLANDIN F2α],NO OF SCRATCH EPISODES (X̄ ± SEM),albino guinea-pig eye; [3],1.75 ± 0.37
CCCCCC(O)/C=C/C=C\C/C=C\C/C=C\CCCC(=O)O (stereo not shown) [15-Hydroxytetraemoic Acid],NO OF SCRATCH EPISODES (X̄ ± SEM),albino guinea-pig eye; [2],0.08 ± 0.08
CCCCC/C=C\CC(O)/C=C/C=C\C/C=C\CCCC(=O)O (stereo not shown) [12-Hydroxytetraemoic Acid],NO OF SCRATCH EPISODES (X̄ ± SEM),albino guinea-pig eye; [2],0.08 ± 0.08
"CC(=O)O [10mM ACETIC ACID, ACETIC ACID]",NO OF SCRATCH EPISODES (X̄ ± SEM),"albino guinea-pig eye; pain producing stimulus solution, no dose printed (--)",0.42 ± 0.19
same,pruritogenic activity (in words),albino guinea-pig eye,virtual absence of an itch-scratch response
CCCCCCCCCCCCCCCCCCNC(=O)OCC(COC(=O)N(Cc1cccc[n+]1CC)C(C)=O)OC (stereo not shown) [Compound of formula (II)],"scratch episodes, TREATED GROUP",[1]; 1 mg/ml pretreatment vs 100 µG antigen,7.62 ± 0.96
same,"scratch episodes, TREATED GROUP (mean ± SEM)","PAF induced pruritus; 10 mg/ml, vs 1 µg PAF",2.67 ± 0.68
same,"scratch episodes, TREATED GROUP (mean ± SEM)","PAF induced pruritus; 10 mg/ml, vs 10 µg PAF",6.50 ± 1.09
